Among the data in article PMC8271486, “Assessment of Antidiabetic Activity of the Shikonin by Allosteric Inhibition of Protein-Tyrosine Phosphatase 1B (PTP1B) Using State of Art: An In Silico and In Vitro Tactics” (Molecules, 2021) are IC50 values, retold here.

This experiment deals with T1, Protein tyrosine phosphatase 1B (PTP1B) (Homo sapiens, UniProt P18031).
T1 construct: gene PTPN1
T1 sequence (P18031 1-435): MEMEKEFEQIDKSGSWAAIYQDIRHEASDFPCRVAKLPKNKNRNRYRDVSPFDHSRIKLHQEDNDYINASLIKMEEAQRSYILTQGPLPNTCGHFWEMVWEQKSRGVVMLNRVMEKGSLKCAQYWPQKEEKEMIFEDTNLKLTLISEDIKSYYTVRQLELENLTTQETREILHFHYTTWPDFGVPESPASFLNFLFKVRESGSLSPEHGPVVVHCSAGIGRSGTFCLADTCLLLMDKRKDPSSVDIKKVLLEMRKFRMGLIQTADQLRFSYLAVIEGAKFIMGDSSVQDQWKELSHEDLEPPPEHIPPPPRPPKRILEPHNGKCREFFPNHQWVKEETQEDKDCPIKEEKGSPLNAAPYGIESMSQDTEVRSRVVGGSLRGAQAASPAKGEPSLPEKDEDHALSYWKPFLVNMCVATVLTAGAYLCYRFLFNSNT
In words: pNPP hydrolysis assay ([…] nm) with human recombinant PTP1B; Dixon and Lineweaver-Burk kinetics. The class given is biochemical.

pIC50: −log10 of the molar value.

With `CC(C)=CC[C@@H](O)C1=CC(=O)c2c(O)ccc(O)c2C1=O` [Shikonin, 5,8-dihydroxy-2-[(1R)-1-hydroxy-4-methylpent-3-enyl] naphthalene-1,4-dione], the pIC50 was 4.81.
